The target in data set [1] is T1, JFH1 NS2–3 (NS2 autoprotease) (Hepatitis C virus genotype 2a, UniProt Q99IB8).
T1 construct: (JFH1 polyprotein residues 906–1209, J4 residues 904–1206); His tag (N); made in house; host or cells: E. coli BL21 (DE3) pLysS, pET23a
Briefly: NS2–3 auto-processing (refolding) assay, JFH1. It is filed as biochemical, Hepatitis C virus genotype 2a isolate JFH1. The note with it: for EC50: JFH1 NS2–3 refolding reaction, 10-point dose response, NS3-FLAG product quantified by western blot. (In general: A western blot detects proteins with antibodies after separation by electrophoresis.)
Protocol: NS2–3 at 20 μM in 6 M GdnHCl was diluted 1:100 into Refolding buffer (30% glycerol, 0.5% CHAPS, 250 mM NaCl, 3 mM cysteine, 50 μM ZnCl2, 10 mM DTT, 50 mM HEPES–NaOH, pH 7.0) and incubated 16 h RT. Compounds (133 × final concentration in DMSO) were diluted into Refolding buffer before the addition of NS2–3 to yield required final concentrations. Reactions were halted by the addition of ¼ volume 4 × Laemmli buffer (200 mM Tris–HCl pH 6.8, 40% glycerol, 8% SDS, 0.08% bromophenol blue, 20 mM DTT) and analysed by 15% SDS–PAGE and western blot using M2 anti-FLAG monoclonal antibody (Sigma Aldrich) followed by IRDye 680RD Donkey anti-Mouse secondary (LI-COR Biosciences). Imaging and analysis was performed using Odyssey imager (LI-COR Biosciences). Intensity of the 20 kDa proteolysis product (NS3-FLAG) was quantified to calculate 50% effective concentration (EC50) using Prism 6 (GraphPad).
To assess the ability of a small molecule to inhibit NS2 protease activity, an in vitro auto-processing assay was employed. A NS2–NS3 precursor protein (NS2–3) comprising the catalytic C-terminal domain of NS2 and the N-terminal protease domain of NS3 (JFH1 polyprotein residues 906–1209, J4 residues 904–1206) flanked by an N-terminal His tag and C-terminal FLAG tag was bacterially expressed and purified from inclusion bodies under denaturing conditions by immobilised metal ion affinity chromatography (IMAC). Upon dilution into Refolding buffer, NS2–3 forms significant secondary structure ([Foster et al., 2010]) allowing the autoprotease to become active. This can be monitored by western blot analysis of NS2–3 refolding reactions with an anti-FLAG antibody to reveal 35 kDa precursor NS2–3-FLAG and 20 kDa NS3-FLAG, one of the proteolysis products. Quantification of the proteolysis product was used as a relative measure of NS2 autoprotease activity.

Another data set deals with SGR-JFH1-NS3-5B. Briefly: SGR firefly luciferase assay, NS2-independent JFH1 replicon. In kind it is cell-based, Hepatitis C virus genotype 2a isolate JFH1. The conditions noted are these: Telaprevir 150 nM, 48 h. How it is done: (§1) Stable cell lines harbouring SGR (Supplementary material) were maintained in Dulbecco’s modified Eagle’s medium (DMEM; Sigma) supplemented with 10% foetal bovine serum (FBS), 100 IU penicillin ml^−1, 100 μg streptomycin ml^−1, 1% non-essential amino acids and 300 μg/ml G418 (Sigma) in a humidified incubator at 37 °C in 5% CO2. Cells were seeded at a density of 2 × 10^4 cells/well in a 96 well plate. After 16 h media was removed and replaced with media supplemented with the indicated concentrations of compounds with standard DMSO at 0.25%. Plates were incubated in the absence of G418 for a further 48 h.
(§2) Luciferase activity was quantified by addition of 30 μl Passive Lysis Buffer (PLB: Promega) and addition of 40 μl LarI reagent (Promega) using a BMG Labtech plate reader with light emission recorded over 6 s. Data was normalised to DMSO control. Statistical significance was determined using the Student’s t test. […]
(§3) Constructs for HCV SGRs of the genotype 1b Con1 (BM4-5) and genotype 2a JFH1 isolates containing a firefly luciferase – neomycin phosphotransferase fusion protein (ffLuc - NPT) have been previously reported (Wyles et al., 2009, Wyles et al., 2007), into which the relevant NS2 coding sequence was introduced. […] Transcripts were purified by phenol/chloroform extraction and quantified by absorbance at 260 nm. […]

Data set [2] deals with SGR-JFH1-NS3-5B cell line. Briefly: Cellular metabolism of SGR-JFH1-NS3-5B cell line. The conditions noted are these: Telaprevir 150 nM, 48 h. It is filed as cell-based. How it is done: as §1
(§4) Cellular metabolism was quantified by 2 h incubation in 1 mM Thiazolyl Blue Tetrazolium Bromide (Sigma Aldrich) before crystals were suspended in 100 μl DMSO and absorbance at 570 nm measured using an infinite F50 platereader (Tecan). Data was normalised to DMSO control. CC50 was calculated using Prism 6 (GraphPad).

The next data set concerns SGR-JFH1-NS2-5B. Briefly: SGR firefly luciferase assay, NS2-dependent JFH1 replicon. In kind it is cell-based, Hepatitis C virus genotype 2a isolate JFH1. The note with it: Telaprevir 150 nM, 48 h. How it is done: as §1, §2, §3
For orientation: In antiviral work, replicon cells carry a viral genome segment that copies itself.

The subject of data set [3] is SGR-JFH1-NS2-5B cell line. Briefly: Cellular metabolism of SGR-JFH1-NS2-5B cell line. In kind it is cell-based. The conditions noted are these: Telaprevir 150 nM, 48 h. On the procedure:
as §1, §4

A short description of data set [4]: Cell viability endpoint assay (Thiazolyl Blue Tetrazolium Bromide). It is filed as cell-based. The note with it: human, Huh7 cells (hepatoma cell line); 72 h incubation, 11-point dose response. How it is done:
as §4
(§5) In other systems, the requirement of epoxide-based inhibitors to form a transient interaction with the protease before becoming covalently linked allows them greater selectivity and makes them more amenable to in vivo applications ([Powers et al., 2002]). To explore the potential for bis-amido based epoxide warheads to exert an inhibitory effect within a HCV model system, compounds 1–10 and cerulenin were tested for cytotoxic effects by calculating CC50 from 72 h incubation in a hepatoma cell line capable of supporting HCV replication (Supplementary Fig. 2). Of the compounds showing significant activity in vitro only 1 and 7 exerted no significant cytotoxicity up to 100 μM (Table 1).

The target of data set [5] is T1, JFH1 NS2–3 (NS2 autoprotease). Also on record: method as in Pieroni et al., 1997; Thibeault et al., 2001. The note with it: ref Pieroni et al., 1997; Thibeault et al., 2001; cited from earlier work.
A further data set deals with Huh7 cells. Briefly: Cell viability endpoint assay (Thiazolyl Blue Tetrazolium Bromide). It is filed as cell-based. The note with it: 72 h incubation, 11-point dose response. On the procedure:
as §4, §5

The structures appear in SMILES notation.

The CC50 is the concentration giving 50% cytotoxicity. Low values mean greater toxicity to the cells, high ones lower toxicity to the cells. By EC50 is commonly meant the concentration needed to bring the measured effect to its halfway point.

T1 sequence (Q99IB8 906-1209): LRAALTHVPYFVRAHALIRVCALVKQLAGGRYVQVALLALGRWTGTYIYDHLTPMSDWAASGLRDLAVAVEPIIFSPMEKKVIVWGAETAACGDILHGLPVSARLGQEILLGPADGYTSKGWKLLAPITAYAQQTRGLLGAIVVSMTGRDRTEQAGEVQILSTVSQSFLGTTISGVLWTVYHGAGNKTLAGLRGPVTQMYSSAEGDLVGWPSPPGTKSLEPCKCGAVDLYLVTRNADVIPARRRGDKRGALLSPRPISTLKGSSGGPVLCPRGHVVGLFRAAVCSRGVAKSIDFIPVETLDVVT

Regarding `O=C(O)CN(CCN(CC(=O)O)CC(=O)O)CC(=O)O` [EDTA], in data set [1] (EDTA 10 mM), the “Inhibition of NS2 autoprotease activity” value is recorded as “inhibited”.

As to `CCC[C@H](NC(=O)[C@@H]1[C@H]2CCC[C@H]2CN1C(=O)[C@@H](NC(=O)[C@@H](NC(=O)c1cnccn1)C1CCCCC1)C(C)(C)C)C(=O)C(=O)NC1CC1` [Telaprevir], the Luciferase activity result with SGR-JFH1-NS3-5B and in the data set with SGR-JFH1-NS2-5B was “comparable reduction” each time. Moreover, the Cellular metabolism result in data set [2] and in data set [3] was “no effect” each time.

`C/C=C/C/C=C/CCC(=O)[C@H]1O[C@H]1C(N)=O` [Cerulenin] yielded a CC50 at 72 h in data set [4] of 31.9 µM. In addition, the EC50 in data set [1] was more than 300 µM. Besides, the “Activity against the NS2 autoprotease (in words)” value in data set [1] (JFH1 NS2–3 refolding, dose response) was “no activity”.

For `CC(C)C[C@H](NC(=O)[C@H]1O[C@@H]1C(=O)O)C(=O)NCCCCN=C(N)N` [Compound E64], the “Activity against the NS2 autoprotease” value in data set [5] was “inactive”. Further, the “Inhibition of NS2 autoprotease” value in data set [1] (E64 300 μM) is reported as “not inhibited”.

In the data set with Huh7 cells, `Cc1ccc(S(=O)(=O)N[C@@H](Cc2ccccc2)C(=O)CCl)cc1` [TPCK, Tosyl phenylalanine chloromethyl ketone] registered a CC50 of 3.3 µM. Besides, in data set [1], the midpoint of the response, the EC50, lay at 15.3 µM.

The values above are taken from PMC4398321, “Epoxide based inhibitors of the hepatitis C virus non-structural 2 autoprotease” (Antiviral Research, 2015).
